Reference: patent publication US4640930A, “Naphtho(1,8-bc)-1,5-thiazocinones” (Hoffmann-La Roche Inc., priority 1986, dated 1987)
Counter-ions that a name gives are not always drawn.

Key:
Guinea Pig Ileum = assay: Guinea pig ileum assay: inhibition of tonic contraction (K+ challenge) of longitudinal muscle, calcium channel blocking; assay type: cell-based; conditions: Cavia porcellus; concentration inhibiting tonic contraction of muscle by 50%; 80 mM K+ challenge, 37° C., compound 2 minutes prior
Experimental: GUINEA PIG ILEUM ASSAY Male guinea-pigs weighing from 300-400 grams were stunned and bled. The abdomen was opened and 10-15 cm of terminal ileum was carefully removed and cleaned and placed in Tyrode's Solution of the following composition: NaCl (8 g/l), KCl (0.2 g/l), MgCl2 (0.1 g/l.), CaCl2 (0.2 g/l). NaH2 PO4 (0.05 g/l), NaHCO3 (1.0 g/l) and Glucose (1 g/l). The solution was maintained at 37° C. and gassed with 95%O2 and 5%CO2. Portions of the ileum were placed over a glass rod, a shallow incision was made the length of the mesenteric attachment just severing the outer-longitudinal muscle layer. The longitudinal muscle was separated from the underlying circular muscle by gentle dissection (Rang, H. P. Annals of New York Academy of Science, vol. 144, page 756, 1964). The tissue was fixed at one end to a tissue holder, the other end was connected by a thread to a force transducer and suspended in a muscle bath containing Tyrode's Solution maintained at 37° C. and gassed with 95%O2 and 5%CO2. An initial tension of 500 mg was applied and the tissue allowed to equilibrate for 60 minutes prior to the start of the study. During this period the tissue was washed every 16 minutes. Each preparation, at 16 minute intervals, was challenged with KCl sufficient to yield a bath K^+ concentration of 80 mMK for 2 minutes, then washed with fresh solution. The 16 minute interval between K^+ challenges was maintained throughout the study. Upon stabilization of the responses to the K^+ challenge the test compound (potential calcium entry antagonist) was introduced into the bath 2 minutes prior to and during the 2 minute exposure to K^+ after which the bath was cleared and washed with fresh solution. Logarithmically increasing doses (up to 10^-4 M) of the potential antagonist were administered as the study progressed. The measure of a compound's ability to inhibit the tonic contraction of muscle is a measure of its activity as a calcium channel blocking agent.

[1] = test system: Spontaneously Hypertensive (SH) Rat; assay: Blood pressure lowering in the spontaneously hypertensive (SH) rat; assay type: in vivo; conditions: oral, male SH rats
Experimental: BLOOD PRESSURE LOWERING IN THE SPONTANEOUSLY HYPERTENSIVE (SH) RAT
Six male SH rats were used for each test. Body weights were recorded. Six pre-drug control recordings of the systolic blood pressure (mmHg) were measured from the tails of the rats which were unanesthetized and restrained in holders. The rats were previously heated for 5-10 minutes at 32°-34° C. The systolic blood pressure was measured by an occlusion cuff.
The compounds were administered orally to the rats in a composition that included 5% compound and the remainder gum acacia. The blood pressure of the rats was measured over a period of hours following oral administration.
The measure of a compound's ability to decrease blood pressure, is a measure of its activity as an anti-hypertensive agent.

COc1ccc([C@@H]2Sc3cccc4cccc(c34)N(CCN(C)C)C(=O)[C@H]2OC(C)=O)cc1 (racemic) [OCOCH3 HCl (±)-trans, (±)-trans-3-(acetyloxy)-2,3-dihydro-5-[2-(dimethylamino)ethyl]-2-(4-methoxy-phenyl)-naphtho[1,8-bc]-1,5-thiazocin4(5H)-one hydrochloride]
IC50 (Guinea Pig Ileum): 3 µM

COc1ccc([C@@H]2Sc3cccc4cccc(c34)N(CCN(C)C)C(=O)[C@@H]2O)cc1 (racemic) [OH HCl (±)-cis, (±)-cis-2,3-dihydro-5-[2-(dimethylamino)ethyl]-3-hydroxy-2-(4-methoxyphenyl)naphtho[1,8-bc]-1,5-thiazocin-4(5H)-one hydrochloride]
IC50 (Guinea Pig Ileum): 4.2 µM

COc1ccc([C@@H]2Sc3cccc4cccc(c34)N(CCN(C)C)C(=O)[C@@H]2OC(C)=O)cc1 (relative stereo) [OCOCH3 HCl (±)-cis, (±)-cis-3-(acetyloxy)-2,3-dihydro-5-[2-dimethylamino)ethyl]-2-(4-methoxyphenyl)naphtho[1,8-bc]-1,5-thiazocin-4(5H)-one hydrochloride]
IC50 (Guinea Pig Ileum): 3.9 µM

COc1ccc([C@@H]2Sc3cccc4cccc(c34)N(CCN(C)C)C(=O)[C@@H]2OC(C)=O)cc1.O=C(O)/C=C/C(=O)O [OCOCH3 fumarate (+)-cis, (+)-cis-3-(acetyloxy)-2,3-dihydro-5-[2-(dimethylamino)ethyl]-2-(4-methoxyphenyl)naphtho[1,8-bc]-1,5-thiazocin-4(5H)-one (E)-2-butenedioate]
IC50 (Guinea Pig Ileum): 0.25 µM
Systolic Blood Pressure in SH Rat Peak Decrease (Δ mm Hg) ([1]; unanesthetized, occlusion cuff on tail, peak decrease): -66 ± 12 mm Hg
Duration of Effect on blood pressure ([1]; footnote a): 1 to 6 h

COc1ccc([C@@H]2Sc3cccc4cccc(c34)N(CCN(C)C)C(=O)[C@@H]2O)cc1 [OH HCl (+)-cis, (+)-cis-2,3-dihydro-5-[2-(dimethylamino)ethyl]-3-hydroxy-2-(4-methoxyphenyl)naphtho[1,8-bc]-1,5-thiazocin-4(5H)-one hydrochloride]
IC50 (Guinea Pig Ileum): 3.1 µM
